Experimental data reported in the supplement of paper PMC4862054.

Legend:
Test in all cases: normalised viability (% of control), CellTiter-Blue; higher = more viable cells (about 100 = DMSO control)
Conditions in all cases: incubation time: 72 h
BT-474 = system: BT-474
Procedure, shortened: (§1)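 Plates were quality-checked by Z'-factor and normalised to vehicle (100) and a positive kill control (0). The underlying assay incubated breast cancer cell lines for 72 h on 384-well plates with compound, then added 2.5 µl CellTiter-Blue for 2 h at 37 °C and read at 560/590 nm. The value is normalised viability at a single listed concentration of the series.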

HDQ-P1 = system: HDQ-P1
Procedure, shortened: as §1

MDA-MB-468 = system: MDA-MB-468
Procedure, shortened: as §1

Hs578T = system: Hs578T
Procedure, shortened: as §1

SK-BR-3 = system: SK-BR-3
Procedure, shortened: as §1

CAL-148 = system: CAL-148
Procedure, shortened: as §1

CAL-51 = system: CAL-51
Procedure, shortened: as §1

HCC1143 = system: HCC1143
Procedure, shortened: as §1

HCC1937 = system: HCC1937
Procedure, shortened: as §1

HCC1599 = system: HCC1599
Procedure, shortened: as §1

MDA-MB-231 = system: MDA-MB-231
Procedure, shortened: as §1

CAL-120 = system: CAL-120
Procedure, shortened: as §1

MFM-223 = system: MFM-223
Procedure, shortened: as §1

CAL-85-1 = system: CAL-85-1
Procedure, shortened: as §1

NC(=O)Nc1cc(-c2cccc(F)c2)sc1C(=O)N[C@H]1CCCNC1 [AZD 7762]
normalised viability [%]
Conditions	0.3 nM	1 nM	3 nM	10 nM	100 nM	1000 nM
BT-474	–	119	–	–	113	106
CAL-51	101	–	93.7	102	–	–
CAL-85-1	106	–	98.6	99.4	–	–
CAL-120	–	118	–	–	101	26.5
CAL-148	110	–	106	111	–	–
HCC1143	–	120	–	–	109	34.8
HCC1599	–	93.2	–	–	73.1	53.9
HCC1937	–	104	–	–	108	27.9
HDQ-P1	108	–	114	115	–	–
Hs578T	–	106	–	–	90	27.3
MDA-MB-231	–	112	–	–	102	31.2
MDA-MB-468	–	107	–	–	103	22.2
MFM-223	–	101	–	–	104	51.7
SK-BR-3	–	101	–	–	93.2	11.5
